In patent publication US20110040086A1, “Novel Beta-Lactam Antibiotics, Methods for Their Production, and Their Use” (DRITTE PATENTPORTFOLIO BETEILIGUNGSGESELLSCHAFT MB, priority 2007, published 2011):

Key:
S. epidermidis 125 = assay: agar diffusion test (Test System II, multi-resistant germs); format: cell-based, Staphylococcus epidermidis
Protocol: (§1) The test substances are deposited in stepped quantities (10 μg, 50 μg, 100 μg) onto active ingredient carriers (sensi-discs). For this purpose, the test substances are dissolved in methanol or A. dest. according to their solubility. Each inoculated plate is fitted with 3 test sheets.
(§2) Test System II (Effect Against Multi-Resistant Germs)
(§3) For this purpose, bacteria is cultivated on Müller-Hinton-Agar II plates.
(§4) With 1-1.5 ml physiological saline solution, a bacteria suspension of McFarland 0.5 (corresponds to a bacteria density of 150×10^6 germs) is produced. Then, with a sterile glass rod, a small drop of bacteria suspension is placed on the Müller-Hinton-Agar plate and coated in three layers (vertical, horizontal, and transverse). Thereafter, the sensi-discs with the novel semi-synthetic test substances are placed on top. The fitted plates are incubated for 18-20 hours at 37° C. After incubation, the diameters of the zones of inhibition are read as a measure for the antimicrobial activity of the novel semi-synthetic test substances.

S. aureus ATCC 6538 = assay: as above; format: cell-based, Staphylococcus aureus
Protocol: as §1, §2, §3, §4

S. aureus 38418 = assay: as above; format: cell-based, Staphylococcus aureus
Protocol: as §1, §2, §3, §4

[1] = system: Bacillus megaterium SBUG 1152; assay: agar diffusion test (Test System 1, antimicrobial effect); format: cell-based
Protocol: (§5) Test System 1 (Antimicrobial Effect)
(§6) The test germs Escherichia coli SBUG 1135 and Bacillus megaterium SBUG 1152 are drawn overnight (17 hours at 37° C.) in 5 ml nutrient medium II. The incubation is performed in a shaking incubator (INFORS AG CH 4103, Bottmingen, Switzerland) at a shaking frequency of 180 rpm.
(§7) After 17 h incubation time, Escherichia coli has reached a cell density of ca. 2.4×10^10 cells/ml and Bacillus megaterium a cell density of ca. 2.1×10^8 cells/ml.
(§8) The seeding of bacteria in agar is selected so that, dense, but not confluent individual colonies develop after the incubation.
Bacillus megaterium: 0.1 ml of non-diluted overnight culture (ÜN) in 10 ml nutrient agar corresponds to a cell count of 10^6.
(§9) The inoculated nutrient agar is set in sterile Petri dishes and left standing for a few minutes for drying.
as §1
(§10) After a 20-hour incubation time at 37° C., the zones of inhibition around the individual test sheets could be measured. The diameter of the zone of inhibition is specified in mm.

S. epidermidis 847 = assay: agar diffusion test (Test System II, multi-resistant germs); format: cell-based, Staphylococcus epidermidis; parameters: key: r = resistant (no detectable zone of inhibition)
Protocol: as §1, §2, §3, §4

S. epidermidis 1068 = assay: as above; format: cell-based, Staphylococcus epidermidis; parameters: key: r = resistant (no detectable zone of inhibition)
Protocol: as §1, §2, §3, §4

S. epidermidis 1071 = assay: as above; format: cell-based, Staphylococcus epidermidis; parameters: key: r = resistant (no detectable zone of inhibition)
Protocol: as §1, §2, §3, §4

S. epidermidis 563 = assay: as above; format: cell-based, Staphylococcus epidermidis; parameters: key: r = resistant (no detectable zone of inhibition)
Protocol: as §1, §2, §3, §4

[2] = system: Escherichia coli SBUG 1135; assay: agar diffusion test (Test System 1, antimicrobial effect); format: cell-based; parameters: key: r = resistant (no detectable zone of inhibition)
Protocol: as §5, §6, §7, §8
Escherichia coli: the ÜN is diluted 1:100 with physiological saline solution, of which 0.1 ml is converted into 10 ml nutrient agar. That corresponds to a cell count of 10^6.
as §9, §1, §10

[3] = system: Enterococcus faecalis 769; assay: agar diffusion test (Test System II, multi-resistant germs); format: cell-based; parameters: key: r = resistant (no detectable zone of inhibition)
Protocol: as §1, §2, §3, §4

[4] = system: Staphylococcus aureus 315; assay: as above; format: cell-based; parameters: key: r = resistant (no detectable zone of inhibition)
Protocol: as §1, §2, §3, §4

E. faecalis 945 = assay: as above; format: cell-based, Enterococcus faecalis; parameters: key: r = resistant (no detectable zone of inhibition)
Protocol: as §1, §2, §3, §4

B. subtilis AWD 166 = assay: agar diffusion test (antimicrobial effect); format: cell-based, Bacillus subtilis
Protocol: as §8, §9, §1, §10

S. aureus 36881 = assay: agar diffusion test (Test System II, multi-resistant germs); format: cell-based, Staphylococcus aureus; parameters: key: r = resistant (no detectable zone of inhibition)
Protocol: as §1, §2, §3, §4

S. aureus 520 = assay: as above; format: cell-based, Staphylococcus aureus; parameters: key: r = resistant (no detectable zone of inhibition)
Protocol: as §1, §2, §3, §4

S. aureus 34289 = assay: as above; format: cell-based, Staphylococcus aureus; parameters: key: r = resistant (no detectable zone of inhibition)
Protocol: as §1, §2, §3, §4

[5] = system: S. aureus North Germany strain; assay: as above; format: cell-based, Staphylococcus aureus; parameters: key: r = resistant (no detectable zone of inhibition)
Protocol: as §1, §2, §3, §4

S. aureus 39105 = assay: as above; format: cell-based, Staphylococcus aureus; parameters: key: r = resistant (no detectable zone of inhibition)
Protocol: as §1, §2, §3, §4

S. aureus 33490 = assay: as above; format: cell-based, Staphylococcus aureus; parameters: key: r = resistant (no detectable zone of inhibition)
Protocol: as §1, §2, §3, §4

S. aureus 526 = assay: as above; format: cell-based, Staphylococcus aureus; parameters: key: r = resistant (no detectable zone of inhibition)
Protocol: as §1, §2, §3, §4

Substance: 7-[2-(2-ethoxycarbonyl-3,6-dioxocyclohexa-1,4-dienylamino)-2-phenyl-acetylamino]-desacetoxycephalosporanic acid [1h]
- Diameter of zone of inhibition (S. epidermidis 125; Quantity n 0.019): 12 mm
- Diameter of zone of inhibition (S. epidermidis 125; Quantity n 0.09): 24 mm
- Diameter of zone of inhibition (S. epidermidis 125; Quantity n 0.19): 28 mm
- Diameter of zone of inhibition (S. aureus ATCC 6538; Quantity n 0.019): 20 mm
- Diameter of zone of inhibition (S. aureus ATCC 6538; Quantity n 0.09): 28 mm
- Diameter of zone of inhibition (S. aureus ATCC 6538; Quantity n 0.19): 30 mm
- Diameter of zone of inhibition (S. aureus 38418; Quantity n [mol] 0.019): 12 mm
- Diameter of zone of inhibition (S. aureus 38418; Quantity n [mol] 0.09): 22 mm
- Diameter of zone of inhibition (S. aureus 38418; Quantity n [mol] 0.19): 28 mm
- Diameter of zone of inhibition ([1]; Quantity n 0.019): 18 mm
- Diameter of zone of inhibition ([1]; Quantity n 0.09): 28 mm
- Diameter of zone of inhibition ([1]; Quantity n 0.19): 32 mm
- Diameter of zone of inhibition (S. epidermidis 847; Quantity n [mol] 0.019): r
- Diameter of zone of inhibition (S. epidermidis 847; Quantity n [mol] 0.09): 12 mm
- Diameter of zone of inhibition (S. epidermidis 847; Quantity n [mol] 0.19): 18 mm
- Diameter of zone of inhibition (S. epidermidis 1068; Quantity n 0.019): r
- Diameter of zone of inhibition (S. epidermidis 1068; Quantity n 0.09): 10 mm
- Diameter of zone of inhibition (S. epidermidis 1068; Quantity n 0.19): 16 mm
- Diameter of zone of inhibition (S. epidermidis 1071; Quantity n 0.019): r
- Diameter of zone of inhibition (S. epidermidis 1071; Quantity n 0.09): 14 mm
- Diameter of zone of inhibition (S. epidermidis 1071; Quantity n 0.19): 20 mm
- Diameter of zone of inhibition (S. epidermidis 563; Quantity n 0.019): r
- Diameter of zone of inhibition (S. epidermidis 563; Quantity n 0.09): 14 mm
- Diameter of zone of inhibition (S. epidermidis 563; Quantity n 0.19): 18 mm
- Diameter of zone of inhibition ([2]; Quantity n 0.019): r
- Diameter of zone of inhibition ([2]; Quantity n 0.09): 14 mm
- Diameter of zone of inhibition ([2]; Quantity n 0.19): 18 mm
- Diameter of zone of inhibition ([3]; Quantity n 0.019): r
- Diameter of zone of inhibition ([3]; Quantity n 0.09): r
- Diameter of zone of inhibition ([3]; Quantity n 0.19): r
- Diameter of zone of inhibition ([4]; Quantity n 0.019): r
- Diameter of zone of inhibition ([4]; Quantity n 0.09): r
- Diameter of zone of inhibition ([4]; Quantity n 0.19): 10 mm
- Diameter of zone of inhibition (E. faecalis 945; Quantity n 0.019): r
- Diameter of zone of inhibition (E. faecalis 945; Quantity n 0.09): r
- Diameter of zone of inhibition (E. faecalis 945; Quantity n 0.19): r
- Diameter of zone of inhibition (B. subtilis AWD 166; Quantity n 0.019): 22 mm
- Diameter of zone of inhibition (B. subtilis AWD 166; Quantity n 0.09): 30 mm
- Diameter of zone of inhibition (B. subtilis AWD 166; Quantity n 0.19): 32 mm
- Diameter of zone of inhibition (S. aureus 36881; Quantity n 0.019): r
- Diameter of zone of inhibition (S. aureus 36881; Quantity n 0.09): r
- Diameter of zone of inhibition (S. aureus 36881; Quantity n 0.19): 12 mm
- Diameter of zone of inhibition (S. aureus 520; Quantity n [mol] 0.019): r
- Diameter of zone of inhibition (S. aureus 520; Quantity n [mol] 0.09): r
- Diameter of zone of inhibition (S. aureus 520; Quantity n [mol] 0.19): r
- Diameter of zone of inhibition (S. aureus 34289; Quantity n [mol] 0.019): r
- Diameter of zone of inhibition (S. aureus 34289; Quantity n [mol] 0.09): r
- Diameter of zone of inhibition (S. aureus 34289; Quantity n [mol] 0.19): r
- Diameter of zone of inhibition ([5]; Quantity n 0.019): r
- Diameter of zone of inhibition ([5]; Quantity n 0.09): 8 mm
- Diameter of zone of inhibition ([5]; Quantity n 0.19): 12 mm
- Diameter of zone of inhibition (S. aureus 39105; Quantity n 0.019): r
- Diameter of zone of inhibition (S. aureus 39105; Quantity n 0.09): 8 mm
- Diameter of zone of inhibition (S. aureus 39105; Quantity n 0.19): 14 mm
- Diameter of zone of inhibition (S. aureus 33490; Quantity n [μmol] 0.019): r
- Diameter of zone of inhibition (S. aureus 33490; Quantity n [μmol] 0.09): 16 mm
- Diameter of zone of inhibition (S. aureus 33490; Quantity n [μmol] 0.19): 20 mm
- Diameter of zone of inhibition (S. aureus 526; Quantity n 0.019): r
- Diameter of zone of inhibition (S. aureus 526; Quantity n 0.09): r
- Diameter of zone of inhibition (S. aureus 526; Quantity n 0.19): r
